Activity calls are given as the source filed them. The calls are words filed in the database; no cut-off is given here.

A short description of data set [1]: Dose normalized AUC in mouse at 20 mg/kg, iv by HPLC-MS/MS analysis. Format: ADME, organism-based. As to conditions: in vivo.
Data set [2] is described as follows: Dose normalized AUC in mouse at 25 mg/kg, iv by HPLC-MS/MS analysis. The data set is classed as ADME, organism-based. As to conditions: in vivo.
Data set [3] in a line: Clearance in dog assessed as hepatic blood flow at 0.9 mg/kg, iv by HPLC-MS/MS analysis. Format: ADME, organism-based, Canis lupus familiaris, Liver. The following applies: in vivo.
Data set [4] relates to NCI-H929. Nature of the data set: Growth inhibition of human NCI-H929 cells measured after 72 to 96 hrs by cell-titer glo assay. The data set is classed as functional. As to conditions: time 72-96 hrs.
A further data set relates to K562. Nature of the data set: Growth inhibition of human K562 cells measured after 72 to 96 hrs by cell-titer glo assay. The following applies: time 72-96 hrs. Format: functional.
Data set [5] in a line: Dose normalized AUC in mouse at 5 mg/kg, iv by HPLC-MS/MS analysis. The data set is classed as ADME, organism-based. The following applies: in vivo.
Data set [6] in a line: Clearance in dog assessed as hepatic blood flow at 0.25 mg/kg, iv by HPLC-MS/MS analysis. The data set is classed as ADME, organism-based, Canis lupus familiaris, Liver. As to conditions: in vivo.
Data set [7] deals with NCI-H1048. Nature of the data set: Antitumor activity against human NCI-H1048 cells xenografted in BomTac:NMRI-Foxn1nu mouse model assessed as tumor growth inhibition at 60 mg/kg, iv administered daily for 7 days and measured upto 16 days in presence of topotecan relative to control. Format: functional. As to conditions: NCI-H1048, 384 h, time <= 16 day, read-out: TGI. Background: A xenograft is tissue or cells of one species grown in another, often human tumour cells in immunodeficient mice.

Data set [8] deals with Induced myeloid leukemia cell differentiation protein Mcl-1 (Homo sapiens) (UniProt Q07820). As to conditions: time 3.0 hrs.
Sequence of Induced myeloid leukemia cell differentiation protein Mcl-1 (Homo sapiens) (Q07820 whole entry): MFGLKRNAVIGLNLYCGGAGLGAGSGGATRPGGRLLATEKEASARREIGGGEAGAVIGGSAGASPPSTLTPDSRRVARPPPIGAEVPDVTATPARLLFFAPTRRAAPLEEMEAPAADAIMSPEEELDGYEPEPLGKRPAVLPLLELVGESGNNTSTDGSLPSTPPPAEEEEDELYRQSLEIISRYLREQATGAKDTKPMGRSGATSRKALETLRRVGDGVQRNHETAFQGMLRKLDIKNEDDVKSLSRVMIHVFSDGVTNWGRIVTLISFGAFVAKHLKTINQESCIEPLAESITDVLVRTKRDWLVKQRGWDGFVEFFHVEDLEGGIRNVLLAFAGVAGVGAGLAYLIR
The nature of data set [9]: Clearance in dog assessed as hepatic blood flow at 0.5 mg/kg, iv by HPLC-MS/MS analysis. Format: ADME, organism-based, Canis lupus familiaris, Liver. As to conditions: in vivo.
Data set [10] has as its target T1, Cytochrome P450 3A4 (Homo sapiens, UniProt P08684). Nature of the data set: Inhibition of CYP3A4 (unknown origin). The data set is classed as ADME.
Another data set addresses T2, Cytochrome P450 2C8 (Homo sapiens, UniProt P10632).
T2 sequence (P10632 whole entry): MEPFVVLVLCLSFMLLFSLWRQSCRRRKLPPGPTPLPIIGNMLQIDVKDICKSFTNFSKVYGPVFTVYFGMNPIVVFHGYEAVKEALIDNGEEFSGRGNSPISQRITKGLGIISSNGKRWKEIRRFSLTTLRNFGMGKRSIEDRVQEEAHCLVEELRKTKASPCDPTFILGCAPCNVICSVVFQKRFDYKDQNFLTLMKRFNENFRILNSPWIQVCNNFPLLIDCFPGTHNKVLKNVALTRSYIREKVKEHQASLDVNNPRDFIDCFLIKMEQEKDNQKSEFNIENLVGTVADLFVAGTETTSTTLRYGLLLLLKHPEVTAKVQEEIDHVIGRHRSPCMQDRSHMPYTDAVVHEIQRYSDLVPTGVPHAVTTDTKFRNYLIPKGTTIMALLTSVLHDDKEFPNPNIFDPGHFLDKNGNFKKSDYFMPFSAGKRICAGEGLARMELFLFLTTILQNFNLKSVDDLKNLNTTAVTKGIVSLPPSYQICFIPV
Briefly: Inhibition of CYP2C8 (unknown origin). The data set is classed as ADME.

Data set [11] has as its target T1, Cytochrome P450 3A4. Nature of the data set: Time dependent inhibition of CYP3A4 (unknown origin) relative to control. Format: ADME.
In data set [12] the test system is A-427. Nature of the data set: Antiproliferative activity against human A-427 cells at upto 1000 nM measured after 72 to 96 hrs in presence of docetaxel by cell-titer glo assay. The data set is classed as functional, cell-based. The following applies: time 72-96 hrs.
Data set [13] is described as follows: Toxicity in CB17/Icr-Prkdc(scid)/IcrCrl mouse assessed as effect on body weight at 60 to 80 mg/kg, iv administered as single dose measured after 15 days. Format: organism-based. As to conditions: in vivo, 360 h, dose 60-80 mg/kg, time 15 day.
In data set [14] the test system is NCI-H929. Nature of the data set: Antitumor activity against human NCI-H929 cells xenografted in CB17/Icr-Prkdc(scid)/IcrCrl mouse assessed as disruption of Mcl-1:BIM complex. The following applies: time <= 48.0 hrs, TDE = time-dependent effect. Format: functional, cell-based.
For data set [15], the system named is NCI-H929. Nature of the data set: Antitumor activity against human NCI-H929 cells xenografted in CB17/Icr-Prkdc(scid)/IcrCrl mouse model assessed as increase in […] activity measured upto 48 hrs by glo reagent based analysis. Format: functional, cell-based.
A short description of data set [16]: AUC in CB17/Icr-Prkdc(scid)/IcrCrl mouse at 60 mg/kg, iv administered daily for 7 days and measured upto 21 days in presence of docetaxel. The following applies: in vivo, time < 21 day. Format: ADME, organism-based.
A short description of data set [17]: Plasma protein binding (unknown origin). As to conditions: read-out: PPB (converted). Format: ADME, cell-free.
Data set [18] has as its system NCI-H1048. Nature of the data set: Antitumor activity against human NCI-H1048 cells xenografted in BomTac:NMRI-Foxn1nu mouse model assessed as tumor growth regression at 60 mg/kg, iv administered daily for 7 days and measured upto 16 days in presence of topotecan. The data set is classed as functional, organism-based. As to conditions: time <= 16.0 day.
Data set [19] can be described thus: Toxicity in CB17/Icr-Prkdc(scid)/IcrCrl mouse assessed as reduction in tumor area at 60 mg/kg, iv measured after 21 days by H and E staining based analysis. The data set is classed as organism-based. As to conditions: in vivo, 504 h, time 21 day.
A short description of data set [20]: Toxicity in CB17/Icr-Prkdc(scid)/IcrCrl mouse assessed as reduction in tumor area at 60 mg/kg, iv measured after 21 days by Ki67 staining based analysis. Format: organism-based. As to conditions: in vivo, 504 h, time 21 day.
Data set [21] can be described thus: Toxicity in CB17/Icr-Prkdc(scid)/IcrCrl mouse assessed as reduction in tumor area at 60 mg/kg, iv measured after 21 days in presence of docetaxel by H and E staining based analysis. Format: organism-based. As to conditions: in vivo, 504 h, time 21 day.
Data set [22] in a line: Toxicity in CB17/Icr-Prkdc(scid)/IcrCrl mouse assessed as reduction in tumor area at 60 mg/kg, iv measured after 21 days presence of docetaxel by Ki67 staining based analysis. Format: organism-based. The following applies: in vivo, 504 h, time 21 day.
Data set [23] in a line: AUC in CB17/Icr-Prkdc(scid)/IcrCrl mouse at 60 mg/kg, iv administered daily for 7 days and measured upto 21 days in presence of (R)-7-(7-Chloro-10-(3-(4-chloro-3,5-dimethylphenoxy)propyl)-4-methyl-1-oxo-6-(2,4,6-trimethylpyrimidin-5-yl)-3,4-dihydropyrazino[1,2-a]indol-2(1H)-yl)-4-methoxy-1-methyl-5-((tetrahydro-2H-pyran-4-yl)methoxy)-1H-indole-2-carboxylic Acid. Format: ADME, organism-based. As to conditions: in vivo, time < 21 day.

For data set [24], the system named is A-427. Briefly: Antitumor activity against human A-427 cells xenografted in CB17/Icr-Prkdc(scid)/IcrCrl mouse model assessed as tumor regression at 10 mg/kg, iv administered daily for 7 days and measured upto 21 days. The data set is classed as functional, organism-based. As to conditions: time <= 21.0 day.
In data set [25] the test system is A-427. Nature of the data set: Antitumor activity against human A-427 cells xenografted in CB17/Icr-Prkdc(scid)/IcrCrl mouse model assessed as tumor regression at 60 mg/kg, iv administered daily for 7 days and measured upto 21 days in presence of docetaxel. The data set is classed as functional, organism-based. The following applies: time <= 21.0 day.
Data set [26] in a line: Toxicity in CB17/Icr-Prkdc(scid)/IcrCrl mouse assessed as reduction in tumor area at 10 mg/kg, iv measured after 21 days by H and E staining based analysis. The data set is classed as organism-based. The following applies: in vivo, 504 h, time 21 day.
Data set [27] is described as follows: Toxicity in CB17/Icr-Prkdc(scid)/IcrCrl mouse assessed as reduction in tumor area at 10 mg/kg, iv measured after 21 days by Ki67 staining based analysis. Format: organism-based. As to conditions: in vivo, 504 h, time 21 day.

T1 sequence (P08684 whole entry): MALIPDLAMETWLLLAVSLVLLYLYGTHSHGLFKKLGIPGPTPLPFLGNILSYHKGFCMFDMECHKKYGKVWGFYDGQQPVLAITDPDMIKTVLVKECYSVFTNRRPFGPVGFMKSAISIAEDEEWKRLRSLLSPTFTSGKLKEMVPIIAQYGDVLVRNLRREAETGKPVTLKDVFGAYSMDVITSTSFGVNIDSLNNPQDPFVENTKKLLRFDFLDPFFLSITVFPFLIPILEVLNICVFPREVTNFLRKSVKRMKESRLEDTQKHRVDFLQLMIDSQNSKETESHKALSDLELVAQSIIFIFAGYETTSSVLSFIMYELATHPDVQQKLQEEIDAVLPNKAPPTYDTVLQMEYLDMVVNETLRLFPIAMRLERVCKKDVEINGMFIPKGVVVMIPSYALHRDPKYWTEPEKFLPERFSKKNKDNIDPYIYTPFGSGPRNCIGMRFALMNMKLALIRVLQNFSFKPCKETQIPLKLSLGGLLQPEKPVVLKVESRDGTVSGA

For the molecule `COc1c(OCC2CCOCC2)cc(N2C[C@@H](C)n3c(c(CCCOc4cc(C)c(Cl)c(C)c4)c4ccc(Cl)c(-c5c(C)ncnc5C)c43)C2=O)c2c1cc(C(=O)O)n2C`, the AUC/dose in [1] was found to be 2830 nM·h/mg/kg.

`COc1c(OC[C@H]2CCCO2)cc(N2C[C@@H](C)n3c(c(CCCOc4cc(C)c(Cl)c(C)c4)c4ccc(Cl)c(-c5c(C)ncnc5C)c43)C2=O)c2c1cc(C(=O)O)n2C` returned an AUC/dose in [2] of 1480 nM·h/mg/kg.

Take `COc1c(OC[C@@H]2CCCO2)cc(N2C[C@@H](C)n3c(c(CCCOc4cc(C)c(Cl)c(C)c4)c4ccc(Cl)c(-c5c(C)nc(C)nc5C)c43)C2=O)c2c1cc(C(=O)O)n2C`: the AUC/dose in data set [1] was found to be 2190 nM·h/mg/kg. Also, the QH in data set [3] is recorded as 29%.

Regarding `CCOc1c(O[C@H]2CCOC2)cc(N2C[C@@H](C)n3c(c(CCCOc4cc(C)c(Cl)c(C)c4)c4ccc(Cl)c(-c5c(C)nc(C)nc5C)c43)C2=O)c2c1cc(C(=O)O)n2C`, the AUC/dose in [1] amounted to 2460 nM·h/mg/kg.

With `COc1c(O[C@H]2CCOC2)cc(N2C[C@@H](C)n3c(c(CCCOc4cc(C)c(Cl)c(C)c4)c4ccc(Cl)c(-c5c(C)nc(C)nc5C)c43)C2=O)c2c1cc(C(=O)O)n2C`, the GI50 (commonly the concentration at which growth is held to half of that of the control) came to 22 nM in the data set on NCI-H929 [4] and 8000 nM with K562. Also, the AUC/dose in [5] came to 1860 nM·h/mg/kg. In addition, the QH in data set [3] worked out at 38%.

The molecule `COCCOc1cc(N2C[C@@H](C)n3c(c(CCCOc4cc(C)c(Cl)c(C)c4)c4ccc(Cl)c(-c5c(C)ncnc5C)c43)C2=O)c2c(cc(C(=O)O)n2C)c1OC` came in with an AUC/dose in data set [2] of 380 nM·h/mg/kg.

Consider `COCCOc1cc(N2C[C@@H](C)n3c(c(CCCOc4cc(C)c(Cl)c(C)c4)c4ccc(Cl)c(-c5c(C)nc(C)nc5C)c43)C2=O)c2c(cc(C(=O)O)n2C)c1OC`, for which, in data set [2], the AUC/dose was 334 nM·h/mg/kg. Moreover, in data set [6], the QH is on record as 50%.

In the case of `CC[C@@]1(O)C(=O)OCc2c1cc1n(c2=O)Cc2cc3c(CN(C)C)c(O)ccc3nc2-1` [TOPOTECAN], the inhibition in vivo at 60 mg/kg in the data set with NCI-H1048 [7] was 108%.

Regarding `Cc1cc(OCCCc2c3n(c4c(-c5c(C)nn(C)c5C)c(Cl)ccc24)[C@H](C)CN(c2cccc4cc(C(=O)O)n(C)c24)C3=O)cc(C)c1Cl`, in data set [8], the result was inactive.

`CCOc1c(OCC2CCOCC2)cc(N2C[C@@H](C)n3c(c(CCCOc4cc(C)c(Cl)c(C)c4)c4ccc(Cl)c(-c5c(C)nc(C)nc5C)c43)C2=O)c2c1cc(C(=O)O)n2C`: the AUC/dose in [1] came to 4930 nM·h/mg/kg.

For `COc1c(O[C@@H]2CCOC2)cc(N2C[C@@H](C)n3c(c(CCCOc4cc(C)c(Cl)c(C)c4)c4ccc(Cl)c(-c5c(C)nc(C)nc5C)c43)C2=O)c2c1cc(C(=O)O)n2C`, the GI50 was 26 nM with NCI-H929 [4] and over 12000 nM in the data set on K562. This molecule came in with an AUC/dose in data set [1] of 1420 nM·h/mg/kg.

The molecule `COc1c(OCC2CCOCC2)cc(N2C[C@@H](C)n3c(c(CCCOc4cc(C)c(Cl)c(C)c4)c4ccc(Cl)c(-c5c(C)nc(C)nc5C)c43)C2=O)c2c1cc(C(=O)O)n2C` showed an AUC/dose in data set [2] of 9000 nM·h/mg/kg. Further, the QH in [9] was determined as 17%. For the same molecule, the results for the IC50 on Cytochrome P450 3A4 [10] and against Cytochrome P450 2C8 were 1800 nM and 2100 nM, respectively. Also, at Cytochrome P450 3A4 [11], the TDI is given as 67%. Further, the outcome in the data set with A-427 [12], in the data set with NCI-H929 [15] and with NCI-H1048 [18] was Active. In addition, the Activity result was “Non-Toxic” in data set [13]; “Tde” with NCI-H929 [14]; “Non-Toxic” in [19]; “Non-Toxic” in [20]; “Non-Toxic” in data set [21]; “Non-Toxic” in [22]. Moreover, the AUC (usually concentration integrated over time) at 504 h in data set [16] turned out to be 0.382 µM·h. Further, in data set [17], the fraction unbound was 0.002.

Turning to `CC(=O)O[C@@]12CO[C@@H]1C[C@H](O)[C@@]1(C)C(=O)[C@H](O)C3=C(C)[C@@H](OC(=O)[C@H](O)[C@@H](NC(=O)OC(C)(C)C)c4ccccc4)C[C@@](O)([C@@H](OC(=O)c4ccccc4)[C@H]21)C3(C)C` [DOCETAXEL ANHYDROUS], in data set [23], the AUC at 504 h worked out at 0.0234 µM·h. Besides, the outcome in the data set with A-427 [24] and in the data set on A-427 [25] was Active. The Activity result in data set [26] and in data set [27] was “Non-Toxic” throughout.

In turn, `COc1c(OC[C@H]2CCCO2)cc(N2C[C@@H](C)n3c(c(CCCOc4cc(C)c(Cl)c(C)c4)c4ccc(Cl)c(-c5c(C)nc(C)nc5C)c43)C2=O)c2c1cc(C(=O)O)n2C` registered an AUC/dose in [1] of 2510 nM·h/mg/kg.

The values are drawn from ChEMBL document CHEMBL5576132 (J Med Chem, 2024).
